Columns and labels:
[1] = tested on: HTT; experiment: RT-qPCR splicing assay, HTT AJ/CJ mRNA; type: cell-based, human; conditions: Homo sapiens, A673 or K562 cells; for IC50: decrease in canonical junction mRNA; for AC50: increase in alternative junction mRNA
Outline: (§1)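 Following 24 h compound exposure at 37 °C (11 points, 3-fold, highest 10 uM; DMSO ≤0.25%), A673 or K562 lysates underwent RT-qPCR for exon-inclusion (AJ) and canonical (CJ) junctions of HTT and MYB. Relative quantification used housekeeping-gene ΔCt and DMSO-normalized ΔΔCt, converted to percentage response.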

[2] = tested on: MYB; experiment: RT-qPCR splicing assay, MYB AJ/CJ mRNA; type: cell-based; conditions: Homo sapiens, A673 or K562 cells, 24 hours; for IC50: decrease in canonical junction mRNA; for AC50: increase in alternative junction mRNA
Outline: as §1

[3] = tested on: MYB; experiment: Gene panel canonical junction qPCR assay, MYB CJ mRNA (Table 7); type: cell-based; conditions: Homo sapiens, read-out: MYB CJ mRNA decrease IC50
Outline: (§2)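 A673 or K562 cells treated with compound; canonical exon-junction mRNA measured by RT-qPCR with junction-spanning primers/probe, normalised to GAPDH, GUSB or PPIA and DMSO (ΔΔCt, RQ). Percentage response set from fixed ΔCt assay windows, fitted to a 4-parameter logistic; IC50 is concentration giving 50% CJ decrease.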

[4] = tested on: HTT; experiment: Gene panel canonical junction qPCR assay, HTT CJ mRNA (Table 7); type: cell-based, human; conditions: Homo sapiens, read-out: HTT CJ mRNA decrease IC50
Outline: as §2

[5] = tested on: Target C; experiment: Gene panel canonical junction qPCR assay, Target C CJ mRNA (Table 7); type: cell-based, human; conditions: Homo sapiens, read-out: Target C CJ mRNA decrease IC50
Outline: as §2

[6] = tested on: SMN2; experiment: Gene panel canonical junction qPCR assay, SMN2 CJ mRNA (Table 7); type: cell-based; conditions: Homo sapiens, read-out: SMN2 CJ mRNA decrease IC50
Outline: as §2

Structure (SMILES)	IC50 ([1]; 24 h) [nM]	IC50 [2] [nM]	IC50 [3] [nM]	IC50 [4] [nM]	IC50 [5] [nM]	IC50 [6] [nM]	AC50 ([1]; 24 h) [nM]	AC50 [2] [nM]	IC50 ([1]; 24 hours) [nM]	AC50 ([1]; 24 hours) [nM]
CN(c1ccc2c(n1)OCc1cc(-n3nccn3)ccc1-2)C1CC2CC(F)(F)C(C1)N2 (stereo not drawn) [Compound 239, 6,6-difluoro-N-methyl-N-[8-(1,2,3-triazol-2-yl)-6H-isochromeno[3,4-b]pyridin-3-yl]-8-azabicyclo[3.2.1]octan-3-amine]	100 to 1000	1000 to 10000	1000 to 10000	100 to 1000	1000 to 10000	100 to 1000	1000 to 10000	1000 to 10000		
COc1cc(-c2ccc3c(c2)COc2nc(O[C@@H]4C[C@H]5CC[C@@H](C4)N5)ccc2-3)cnn1 [Compound 223, (1R,3R,5S)-3-{[8-(6-methoxypyridazin-4-yl)-6H-isochromeno[3,4-b]pyridin-3-yl]oxy}-8-azabicyclo[3.2.1]octane]	< 100	100 to 1000	100 to 1000	< 100	< 100	< 100	< 100	< 100		
FC1(F)CC2CC(Oc3ccc4c(n3)OCc3cc(-n5nccn5)ccc3-4)CC1N2 (stereo not drawn) [Compound 235, 6,6-difluoro-3-{[8-(1,2,3-triazol-2-yl)-6H-isochromeno[3,4-b]pyridin-3-yl]oxy}-8-azabicyclo[3.2.1]octane]	> 10000	> 10000	> 10000	> 10000	1000 to 10000	> 10000	> 10000	> 10000		
O=c1cc(-c2ccc3c(c2)COc2nc(OC4CC5CC(F)(F)C(C4)N5)ccc2-3)cc[nH]1 (stereo not drawn) [Compound 229]		> 10000	> 10000	> 10000	> 10000	> 10000		> 10000	> 10000	> 10000
COc1cc(-c2cc3c(cc2F)-c2ccc(N(C)[C@@H]4C[C@H]5CC[C@@H](C4)N5)nc2OC3)cnn1 [Compound 242]	< 100	1000 to 10000	100 to 1000	< 100	< 100	< 100	< 100	< 100		
COc1cc(-c2ccc3c(c2)COc2nc(N(C)[C@H]4C[C@@H]5CC(F)(F)[C@H](C4)N5)ccc2-3)cnn1 [Compound 247, (1R,3S,5S)-6,6-difluoro-N-[8-(6-methoxypyridazin-4-yl)-6H-isochromeno[3,4-b]pyridin-3-yl]-N-methyl-8-azabicyclo[3.2.1]octan-3-amine]	< 100	100 to 1000	100 to 1000	< 100	100 to 1000	< 100	< 100	> 10000		
[2H]C([2H])([2H])N(c1ccc2c(n1)OCc1cc(-n3cccn3)ccc1-2)C1CCNCC1 [Compound 176]	1000 to 10000	> 10000	> 10000	1000 to 10000	> 10000	1000 to 10000	1000 to 10000	> 10000		
CCN(c1ccc2c(n1)OCc1cc(-n3cccn3)ccc1-2)[C@@H]1C[C@H]2CC[C@@H](C1)N2 [Compound 191]	100 to 1000	1000 to 10000	1000 to 10000	100 to 1000	1000 to 10000	100 to 1000	1000 to 10000	> 10000		
CN(c1ccc2c(n1)OCc1cc(-n3cccn3)ccc1-2)C1CCNCC1 [Compound 175]	> 10000	> 10000	> 10000	> 10000	> 10000	1000 to 10000	1000 to 10000	> 10000		
FC1(F)CC2CC(Nc3ccc4c(n3)OCc3cc(-n5nccn5)ccc3-4)CC1N2 (stereo not drawn) [Compound 238, 6,6-difluoro-N-[8-(1,2,3-triazol-2-yl)-6H-isochromeno[3,4-b]pyridin-3-yl]-8-azabicyclo[3.2.1]octan-3-amine]	100 to 1000	1000 to 10000	1000 to 10000	100 to 1000	1000 to 10000	1000 to 10000	1000 to 10000	1000 to 10000		
CN(c1ccc2c(n1)OCc1cc(-n3cccn3)ccc1-2)[C@@H]1C[C@H]2CCC[C@@H](C1)N2 [Compound 178]	< 100	100 to 1000	100 to 1000	< 100	100 to 1000	< 100	< 100	< 100		

More lines, main results first:

IC50 ([1]; 24 h) [nM]	IC50 [2] [nM]	IC50 [3] [nM]	IC50 [4] [nM]	IC50 [5] [nM]	IC50 [6] [nM]	Structure (SMILES)	AC50 ([1]; 24 h) [nM]	AC50 [2] [nM]	IC50 ([1]; 24 hours) [nM]	AC50 ([1]; 24 hours) [nM]
1000 to 10000	> 10000	> 10000	1000 to 10000	> 10000	1000 to 10000	CN1C[C@@H]2CN(c3ccc4c(n3)OCc3cc(-n5cccn5)ccc3-4)C[C@@H]2C1 [Compound 170]	1000 to 10000	1000 to 10000		
1000 to 10000	1000 to 10000	1000 to 10000	1000 to 10000	1000 to 10000	100 to 1000	CC(C)(C)NC1CCN(c2ccc3c(n2)OCc2cc(-n4nccn4)ccc2-3)C1 (stereo not drawn) [Compound 250, N-tert-butyl-1-[8-(1,2,3-triazol-2-yl)-6H-isochromeno[3,4-b]pyridin-3-yl]pyrrolidin-3-amine 2,2,2-trifluoroacetate]	100 to 1000	1000 to 10000		
1000 to 10000	> 10000	> 10000	1000 to 10000	> 10000	1000 to 10000	COc1cc(-c2ccc3c(c2)COc2nc(N4CCC(N)CC4)ccc2-3)cnn1 [Compound 288]	1000 to 10000	> 10000		
100 to 1000	1000 to 10000	1000 to 10000	100 to 1000	1000 to 10000	100 to 1000	CC1(NC2CCN(c3ccc4c(n3)OCc3cc(-n5nccn5)ccc3-4)C2)CC1 (stereo not drawn) [Compound 252, N-(1-methylcyclopropyl)-1-[8-(1,2,3-triazol-2-yl)-6H-isochromeno[3,4-b]pyridin-3-yl]pyrrolidin-3-amine]	1000 to 10000	1000 to 10000		
100 to 1000	1000 to 10000	1000 to 10000	100 to 1000	1000 to 10000	100 to 1000	COc1cc(-c2ccc3c(c2)COc2nc(OC4CC(C)(C)NC(C)(C)C4)ncc2-3)cnn1 [Compound 299]	100 to 1000	1000 to 10000		
> 10000	> 10000	> 10000	> 10000	> 10000	> 10000	c1cnn(-c2ccc3c(c2)COc2nc(N4CC5(CCCNC5)C4)ccc2-3)c1 [Compound 168]	> 10000	> 10000		
> 10000	> 10000	> 10000	> 10000	> 10000	> 10000	CN1CCCC2(CCN2c2ccc3c(n2)OCc2cc(-c4cn[nH]c4)ccc2-3)C1 (stereo not drawn) [Compound 222, 6-methyl-1-[8-(1H-pyrazol-4-yl)-6H-isochromeno[3,4-b]pyridin-3-yl]-1,6-diazaspiro[3.5]nonane]	> 10000	> 10000		
100 to 1000	1000 to 10000	1000 to 10000	100 to 1000	1000 to 10000	100 to 1000	COc1cc(-c2ccc3c(c2)COc2nc(N4CC[C@H](NC(C)(C)C)C4)ncc2-3)cnn1 [Compound 279]	100 to 1000	1000 to 10000		
> 10000	> 10000	> 10000	> 10000	> 10000	> 10000	c1cnn(-c2ccc3c(c2)COc2nc(N4CC5(CCNCC5)C4)ccc2-3)c1 [Compound 167]	> 10000	> 10000		
1000 to 10000	1000 to 10000	1000 to 10000	1000 to 10000	1000 to 10000	1000 to 10000	c1cnn(-c2ccc3c(c2)COc2nc(N4CCC5(CCNC5)CC4)ccc2-3)c1 [Compound 184]	1000 to 10000	1000 to 10000		
1000 to 10000	> 10000	> 10000	1000 to 10000	1000 to 10000	100 to 1000	CNC1CCN(c2ccc3c(n2)OCc2cc(-c4cnnc(OC)c4)ccc2-3)CC1 [Compound 300, 1-[8-(6-methoxypyridazin-4-yl)-6H-isochromeno[3,4-b]pyridin-3-yl]-N-methylpiperidin-4-amine]	1000 to 10000	> 10000		
< 100	100 to 1000	100 to 1000	< 100	< 100	< 100	COc1cc(-c2ccc3c(c2)COc2nc(N4CC[C@@H](NC(C)(C)C)C4)ccc2-3)cnn1 [Compound 265, (3R)—N-tert-butyl-1-[8-(6-methoxypyridazin-4-yl)-6H-isochromeno[3,4-b]376yrrolid-3-yl]376yrrolidine-3-amine]	< 100	< 100		
< 100	100 to 1000	100 to 1000	< 100	100 to 1000	< 100	COc1cc(-c2ccc3c(c2)COc2nc(N4CCN[C@@H](C(C)C)C4)ccc2-3)cnn1 [Compound 303]	100 to 1000	100 to 1000		
